Activity calls are given as the source filed them. The calls are words filed in the database; no cut-off is given here.
Tests used:
[1] = biological target: T1, Hypoxanthine-guanine phosphoribosyltransferase (Homo sapiens) (UniProt P00492); experiment: Inhibition of human HGPRT by spectrophotometric analysis in presence of 52 uM PPi
T1 sequence (whole entry): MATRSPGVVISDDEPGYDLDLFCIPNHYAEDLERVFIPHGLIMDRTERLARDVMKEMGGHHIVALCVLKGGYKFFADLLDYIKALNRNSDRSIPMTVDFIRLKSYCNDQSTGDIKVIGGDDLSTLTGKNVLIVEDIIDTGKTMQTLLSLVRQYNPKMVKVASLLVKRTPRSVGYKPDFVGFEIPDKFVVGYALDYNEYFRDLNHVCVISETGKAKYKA

[2] = biological target: T1, Hypoxanthine-guanine phosphoribosyltransferase (Homo sapiens); experiment: (§1) Inhibition of human HGPRT by spectrophotometric analysis in absence of PPi
Plasmodium falciparum [3] = experiment: (§2) Inhibition of Plasmodium falciparum HGPRT by spectrophotometric analysis in presence of 52 uM PPi
Plasmodium vivax [4] = experiment: (§3) Inhibition of Plasmodium vivax HGPRT by spectrophotometric analysis in absence of PPi
Plasmodium vivax [5] = experiment: (§4) Inhibition of Plasmodium vivax HGPRT by spectrophotometric analysis in presence of 52 uM PPi
Plasmodium falciparum [6] = experiment: (§5) Inhibition of Plasmodium falciparum HGPRT by spectrophotometric analysis in absence of PPi
[7] = Selectivity ratio of Ki for human HGPRT to Ki for Plasmodium falciparum HGPRT
[8] = biological target: T2, Hypoxanthine-guanine phosphoribosyltransferase (Homo sapiens, UniProt P00492); experiment: as §1
T2 sequence (P00492 whole entry): T1 sequence (whole entry)

[9] = Selectivity ratio of Ki for human HGPRT to Ki for Plasmodium vivax HGPRT
[10] = as §2
[11] = as §3
[12] = as §4
[13] = as §5
Plasmodium vivax [14] = experiment: Inhibition of Plasmodium vivax HGPRT at >= 100 uM by spectrophotometric analysis in absence of PPi
Plasmodium falciparum [15] = experiment: Inhibition of Plasmodium falciparum HGPRT at >= 100 uM by spectrophotometric analysis in presence of 52 uM PPi
Plasmodium falciparum [16] = experiment: Inhibition of Plasmodium falciparum HGPRT at >= 100 uM by spectrophotometric analysis in absence of PPi
[17] = biological target: T1, Hypoxanthine-guanine phosphoribosyltransferase (Homo sapiens); experiment: Inhibition of human HGPRT at >= 100 uM by spectrophotometric analysis in presence of 52 uM PPi
Plasmodium vivax [18] = experiment: Inhibition of Plasmodium vivax HGPRT at >= 100 uM by spectrophotometric analysis in presence of 52 uM PPi
[19] = biological target: T1, Hypoxanthine-guanine phosphoribosyltransferase (Homo sapiens); experiment: Inhibition of human HGPRT at >= 100 uM by spectrophotometric analysis in absence of PPi
Plasmodium vivax [20] = experiment: Inhibition of Plasmodium vivax HGPRT at >= 30 uM by spectrophotometric analysis in presence of 52 uM PPi
Plasmodium falciparum [21] = experiment: Inhibition of Plasmodium falciparum HGPRT at >= 30 uM by spectrophotometric analysis in presence of 52 uM PPi
[22] = biological target: T1, Hypoxanthine-guanine phosphoribosyltransferase (Homo sapiens); experiment: Inhibition of human HGPRT at >= 30 uM by spectrophotometric analysis in presence of 52 uM PPi
[23] = biological target: T1, Hypoxanthine-guanine phosphoribosyltransferase (Homo sapiens); experiment: Inhibition of human HGPRT at >= 30 uM by spectrophotometric analysis in absence of PPi

Structure (SMILES) | Ratio Ki [7] | Ki [8] | Ratio Ki [9] | inhibition [22] | Ki [10] | Ki [11] | Ki [12] | Ki [13] | further results
O=c1[nH]cnc2c1ncn2/C=C\COCP(=O)(O)O |  |  |  |  |  |  |  |  | inhibition [1]: inactive; inhibition [2]: inactive; inhibition (Plasmodium falciparum [3]): inactive; inhibition (Plasmodium vivax [4]): inactive; inhibition (Plasmodium vivax [5]): inactive; inhibition (Plasmodium falciparum [6]): inactive
O=C(O)COC(COCP(=O)(O)O)Cn1cnc2c(=O)[nH]cnc21 (stereo not given) |  |  |  |  |  |  |  |  | inhibition (Plasmodium vivax [14]): inactive; inhibition (Plasmodium falciparum [15]): inactive; inhibition (Plasmodium falciparum [16]): inactive; inhibition [17]: inactive; inhibition (Plasmodium vivax [18]): inactive; inhibition [19]: inactive
Nc1nc2c(ncn2CC(COCP(=O)(O)O)OCC(=O)O)c(=O)[nH]1 (stereo not given) | 1 | 5 µM | 0.2 | inactive |  | 27 µM |  | 5 µM | inhibition (Plasmodium vivax [20]): inactive; inhibition (Plasmodium falciparum [21]): inactive

More lines, main results first:

Ratio Ki [7] | Ki [8] | Ratio Ki [9] | inhibition [22] | Structure (SMILES) | Ki [10] | Ki [11] | Ki [12] | Ki [13] | further results
2.8 | 4 µM | 0.4 |  | Nc1nc2c(ncn2CC(O)COCP(=O)(O)O)c(=O)[nH]1 (stereo not given) | 0.5 µM | 10 µM | 2.8 µM | 1.4 µM | 
> 50 |  | > 25 | inactive | O=c1[nH]cnc2c1ncn2CC(O)COCP(=O)(O)O (stereo not given) | 0.3 µM | 5 µM | 0.9 µM | 2 µM | inhibition [23]: inactive
